Test results: ChEMBL document CHEMBL1127643, “Mechanism-based design, synthesis, and in vitro antimalarial testing of new 4-methylated trioxanes structurally related to artemisinin: the importance of a carbon-centered radical for antimalarial activity” (J Med Chem, 1994)
Values after ≈ are worked out from the molar mass of the structure shown.

Assays:
Plasmodium falciparum [1] = assay: In vitro antimalarial activity against Plasmodium falciparum W-2 Indochina; type: functional, organism-based
Plasmodium falciparum [2] = assay: In vitro antimalarial activity against Plasmodium falciparum D6 Africa; type: functional, organism-based

## CO[C@H]1O[C@]2(C)OO[C@]13[C@H](CCO)CCC[C@@H]3CC2(C)C
Plasmodium falciparum [1]
  IC50: > 500 ng/mL
Plasmodium falciparum [2]
  IC50: > 500 ng/mL

## C[C@@H]1CC[C@H]2[C@@H](C)C(=O)O[C@@H]3O[C@@]4(C)CC[C@@H]1[C@]32OO4 [ARTEMISININ]
Plasmodium falciparum [1]
  IC50: 8 ng/mL (≈ 0.0283 µM)
Plasmodium falciparum [2]
  IC50: 8 ng/mL (≈ 0.0283 µM)

## CO[C@H]1O[C@]2(C)OO[C@]13[C@H](CCOCc1ccccc1)CCC[C@@H]3CC2(C)C
Plasmodium falciparum [1]
  IC50: > 500 ng/mL
Plasmodium falciparum [2]
  IC50: > 500 ng/mL

## CO[C@H]1O[C@]2(C)OO[C@]13[C@H](CCO)CCC[C@@H]3C[C@H]2C
Plasmodium falciparum [1]
  IC50: > 500 ng/mL
Plasmodium falciparum [2]
  IC50: > 500 ng/mL

## CO[C@H]1O[C@]2(C)OO[C@]13[C@H](CCO)CCC[C@@H]3C[C@@H]2C
Plasmodium falciparum [1]
  IC50: 4.5 ng/mL (≈ 0.0157 µM)
Plasmodium falciparum [2]
  IC50: 3.5 ng/mL (≈ 0.0122 µM)
